Entries after “also recorded” stand apart in the source; their conditions may differ.
What was measured:
[1] = Residual humidity of the powder; format: physicochemical; settings: for Humidity %: Test in Mobile Minor unit, IN/OUT temperature differs per test
[2] = sterile spray-dried product
[3] = Particle size (laser particle-size distribution analysis); format: physicochemical; settings: for Particle size D50μ: Test in Mobile Minor unit, IN/OUT temperature differs per test
[4] = S,S isomer content by HPLC (area of active isomer to sum of both isomers); format: physicochemical; settings: for S,S Stereoisomer %: Test in Mobile Minor unit, IN/OUT temperature differs per test; for enantiomeric excess of S,S isomer: sterile spray-dried product
Protocol: The S-adenosyl methionine of the invention preferably has a water content below 2% by weight and an active enantiomer content exceeding 75% of the total SAMe. The enantiomer content is determined by the percentage of the area of active isomer to the sum of the area of both isomers in the HPLC analysis.

BET surface area = format: physicochemical
[5] = Microscope appearance of particles; format: physicochemical
[6] = Stability of SAMe salt solutions; format: physicochemical
[7] = Table 2, comparison with the medicament on the market
[8] = spray-dried, TIN 150° C., TOUT 95-96° C.

| SMILES | Humidity % [1] | endotoxin level [2] | Particle size D50μ [3] | S,S Stereoisomer % [4] | enantiomeric excess of S,S isomer [4] | also measured |
| --- | --- | --- | --- | --- | --- | --- |
| C[S+](CC[C@H](N)C(=O)[O-])C[C@H]1O[C@@H](n2cnc3c(N)ncnc32)[C@H](O)[C@@H]1O.O=S(=O)(O)CCCCS(=O)(=O)O (single isomer, unassigned) [Example 3, SAMe 1,4-butanedisulphonate] | 1.63% | less than 0.118 U/g | 9 μ | 75.65% | exceeding 80% |  |
| C[S+](CC[C@H](N)C(=O)[O-])C[C@H]1O[C@@H](n2cnc3c(N)ncnc32)[C@H](O)[C@@H]1O.O=S(=O)(O)CCCCS(=O)(=O)O (single isomer, unassigned) [Example 4, SAMe 1,4-butanedisulphonate] | 1.63% | less than 0.118 U/g | 8 μ | 72.60% | exceeding 80% |  |
| C[S+](CC[C@H](N)C(=O)[O-])C[C@H]1O[C@@H](n2cnc3c(N)ncnc32)[C@H](O)[C@@H]1O.O=S(=O)(O)CCCCS(=O)(=O)O (single isomer, unassigned) [Example 5, SAMe 1,4-butanedisulphonate] | 1.88% |  | 9 μ | 76.63% |  | Humidity [1, 7]: 1.20%; BET surface area (m2/g) (BET surface area): 0.3460 m2/g; Laser particle-size distribution analysis, 10% ([3]; 10%): 10% = 14.4 micron; Laser particle-size distribution analysis, 50% ([3]; 50%): 50% = 28.7 micron; Laser particle-size distribution analysis, 90% ([3]; 90%): 90% = 53.8 micron; SS isomer (%) [4, 7]: 73.1%; Microscope [5]: Regular,; also recorded: spherical particles |
| C[S+](CC[C@H](N)C(=O)[O-])C[C@H]1O[C@@H](n2cnc3c(N)ncnc32)[C@H](O)[C@@H]1O.O=S(=O)(O)CCCCS(=O)(=O)O (single isomer, unassigned) [Example 7, SAMe 1,4-butanedisulphonate, reference compound] | 2.65% |  | 10 μ | 75.95% |  | enantiomeric ratio, S,S isomer [4]: 70% |
| C[S+](CC[C@H](N)C(=O)[O-])C[C@H]1O[C@@H](n2cnc3c(N)ncnc32)[C@H](O)[C@@H]1O.O=S(=O)(O)CCCCS(=O)(=O)O (some centres unmarked) [Example 1, SAMe 1,4-butanedisulphonate] |  |  |  |  |  | residual humidity [1, 8]: 1.50%; particle size D50 [3, 8]: 10 microns; stereoisomeric ratio [4, 8]: 73.77% |
| C[S+](CC[C@H](N)C(=O)[O-])C[C@H]1O[C@@H](n2cnc3c(N)ncnc32)[C@H](O)[C@@H]1O (some centres unmarked) [SAMe SD4, S-adenosyl methionine] |  |  |  |  |  | stability of the solution ([6]; at ambient temperature): break down rapidly; stability of the solution ([6]; stored at a cold temperature, unless microbial contamination is present): stable |

Source: patent US20160271063A1, “STERILE S-ADENOSYL METHIONINE WITH A HIGH CONTENT OF ACTIVE ISOMER FOR INJECTABLE SOLUTIONS, AND PROCEDURE FOR OBTAINING IT” (GNOSIS S.P.A., priority 2013, published 2016)
